This is an account of results in patent publication US7504420B2, “Compounds which inhibit beta-secretase activity and methods of use” (CoMentis, Inc., priority 2005, dated 2009).

Test [1] deals with memapsin 2 (Homo sapiens, UniProt P56817). Nature of the test: Inhibition of memapsin 2 catalytic activity (Ki). The test is classed as biochemical. The conditions noted are these: memapsin 2, pH 4, 37° C.; read-out: M2K. In outline: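 Run at 37 °C and pH 4: compound and enzyme pre-incubated 20 min before FS-2 fluorogenic substrate started hydrolysis,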
Test [2] concerns the target cathepsin D (Homo sapiens, UniProt P07339). Nature of the test: Inhibition of cathepsin D catalytic activity (Ki). It counts as biochemical. The note with it: pH 4.0, 37° C., read-out: CDK.
Test [3] concerns the target T1, memapsin 1 (Homo sapiens, UniProt Q9Y5Z0).
T1 sequence (Q9Y5Z0 63-518): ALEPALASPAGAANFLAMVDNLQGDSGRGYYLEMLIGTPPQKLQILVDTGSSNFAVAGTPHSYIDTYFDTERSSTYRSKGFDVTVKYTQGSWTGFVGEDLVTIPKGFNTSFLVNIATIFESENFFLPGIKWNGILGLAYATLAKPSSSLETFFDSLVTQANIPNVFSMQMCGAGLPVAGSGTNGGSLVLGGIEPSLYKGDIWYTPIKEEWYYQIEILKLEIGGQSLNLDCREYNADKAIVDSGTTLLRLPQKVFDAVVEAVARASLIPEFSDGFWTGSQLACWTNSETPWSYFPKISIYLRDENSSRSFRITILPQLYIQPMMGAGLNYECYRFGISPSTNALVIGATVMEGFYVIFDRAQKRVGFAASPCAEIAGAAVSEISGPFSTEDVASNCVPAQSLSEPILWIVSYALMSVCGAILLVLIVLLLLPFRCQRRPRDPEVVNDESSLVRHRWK
Nature of the test: Inhibition of memapsin 1 catalytic activity (Ki). The test is classed as biochemical. The conditions noted are these: memapsin 1, pH 4.0, 37° C.; read-out: M1K. As to the method:
A substrate peptide NH3-ELDLAVEFWHDR-CO2 (SEQ ID NO.:1) (used for inhibition assay of memapsin 2, memapsin 1, and cathepsin D) was dissolved at 2 mg/ml in DMSO and diluted 1:100 in 0.1 M sodium acetate, pH 4.0 just prior to assay. Inhibitor dissolved in DMSO was diluted into 0.1 M sodium acetate, pH 4.0 (1:100 dilution). A […] aliquot of the inhibitor solution in pH 4 buffer was combined with […] of 0.1 M sodium acetate containing 100-200 nM of memapsin 1, memapsin 2, or cathepsin D. Following a pre-incubation at 37° C., the proteolytic assay was initated by addition of […] of the substrate diluted into pH 4 buffer, and incubation continued at 37° C. Aliquots were removed at time intervals, and combined with an equal volume of MALDI-TOF matrix (α-hydroxycinnamic acid in acetone, 20 mg/ml) and immediately spotted in duplicate onto a stainless-steel MALDI sample plate. MALDI-TOF mass spectrometry was performed on a PE Biosystems Voyager DE instrument at the Molecular Biology Resource Center on campus. The instrument was operated at 25,000 accelerating volts in positive mode with a 150 ns delay. Ions with a mass-to-charge ratio (m/z) were detected in the range of 650-2000 atomic mass units. Data were analyzed by the Voyager Data Explorer module to obtain ion intensity data for mass species of substrates and corresponding products in a given mixture. Relative product formation was calculated as the ratio of signal intensity of the product to the sum of signal intensities of both product and the corresponding substrate. Relative product formed per unit time was obtained from non-linear regression analysis of the data representing the initial 15% formation of product using the model: 1−e^−kT, where k was the relative hydrolytic rate constant and T was time in seconds. Alternatively, relative hydrolytic rates were determined using a fluorogenic cleavage assay (Ermolieff, J. et al., Biochemistry, 39: 12450-12456 (2000)). Initial rates from either method were expressed relative to uninhibited controls and the inhibition constant Ki was determined by a non-linear fit to a tight-binding model of competitive inhibition (Bieth, J., Bayer-Symposium V: Proteinase Inhibitors, pp 463-469, Spinger-Varlag, Berlin (1994)). Results are shown in Table 1 above (M2K, CDK, and M1K columns represent, respectively, the K1 values obtained for memapsin 2, cathepsin D and memapsin 1).

For test [4], the system named is Aβ production in Chinese hamster ovary cells that over-express human APP695 with the London and Swedish mutations. Nature of the test: Cellular Aβ IC50 determination (Aβ40 sandwich ELISA). The conditions noted are these: Cricetulus griseus, CHO, 24 h, read-out: Cell, Aβ40, CHO cells over-expressing human APP695 (London and Swedish mutations), 24 h.

cathepsin D, sequence (P07339 65-412, species assumed): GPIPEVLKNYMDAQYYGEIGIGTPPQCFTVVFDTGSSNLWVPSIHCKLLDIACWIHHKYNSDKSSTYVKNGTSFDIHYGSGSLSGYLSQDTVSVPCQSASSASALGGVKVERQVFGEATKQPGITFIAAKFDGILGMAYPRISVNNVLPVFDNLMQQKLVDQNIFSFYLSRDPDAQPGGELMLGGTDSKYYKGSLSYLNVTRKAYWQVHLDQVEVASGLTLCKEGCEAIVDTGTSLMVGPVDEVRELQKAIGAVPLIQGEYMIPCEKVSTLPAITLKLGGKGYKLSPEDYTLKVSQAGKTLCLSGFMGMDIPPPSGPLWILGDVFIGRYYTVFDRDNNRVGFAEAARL
memapsin 2, sequence (P56817 46-501): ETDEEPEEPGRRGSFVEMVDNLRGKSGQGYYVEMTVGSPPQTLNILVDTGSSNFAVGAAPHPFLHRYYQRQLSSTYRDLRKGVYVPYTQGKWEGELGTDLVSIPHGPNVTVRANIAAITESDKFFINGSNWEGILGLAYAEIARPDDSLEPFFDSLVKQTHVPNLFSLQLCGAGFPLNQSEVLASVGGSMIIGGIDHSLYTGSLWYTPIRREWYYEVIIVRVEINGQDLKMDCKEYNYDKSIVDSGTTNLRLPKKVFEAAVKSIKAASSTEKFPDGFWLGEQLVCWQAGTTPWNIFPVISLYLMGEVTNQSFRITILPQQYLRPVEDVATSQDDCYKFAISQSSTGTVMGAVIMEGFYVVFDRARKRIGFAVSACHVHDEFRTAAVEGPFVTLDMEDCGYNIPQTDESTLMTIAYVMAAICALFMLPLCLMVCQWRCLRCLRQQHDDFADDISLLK

With `CC(NCC(O)C(Cc1ccccc1)NC(=O)c1cc(C(=O)NC(C)c2ccccc2)cc(N(C)S(C)(=O)=O)c1)c1ccccc1` (stereo not shown) [N1-(3-hydroxy-1-phenyl-4-(1-phenylethylamino)butan-2-yl)-5-(N-methylmethylsulfonamido)-N3-(1-phenylethyl)isophthalamide], the Ki in test [1] was below 300 nM; in test [2], below 300 nM; in test [3], 301 to 500 nM. For the same molecule, the IC50 in test [4] was below 1000 nM.

For `CC(NC(=O)c1cc(C(=O)NC(Cc2ccccc2)C(O)CNCc2cccc(COCc3ccccc3)c2)cc(N(C)S(C)(=O)=O)c1)c1ccccc1` (stereo not shown) [N1-(4-(3-(benzyloxymethyl)benzylamino)-3-hydroxy-1-phenylbutan-2-yl)-5-(N-methylmethylsulfonamido)-N3-(1-phenylethyl)isophthalamide], the Ki in test [1] was 301 to 500 nM; in test [2], above 501 nM; in test [3] it was below 300 nM.

With `Cc1nc(CNCC(O)C(Cc2ccccc2)NC(=O)c2cc(C(=O)NC(C)c3ccccc3)cc(N(C)S(C)(=O)=O)c2)c(C)o1` (stereo not shown) [N1-(4-((2,5-dimethyloxazol-4-yl)methylamino)-3-hydroxy-1-phenylbutan-2-yl)-5-(N-methylmethylsulfonamido)-N3-(1-phenylethyl)isophthalamide], the Ki in test [2] and in test [3] was above 501 nM in each case. The IC50 in test [4] lay in the range of 1000 to 5000 nM.

For the molecule `Cc1csc(CN(C)CC(O)C(Cc2ccccc2)NC(=O)c2cc(C(=O)NC(C)c3ccccc3)cc(N(C)S(C)(=O)=O)c2)n1` (stereo not shown) [N1-(3-hydroxy-4-(methyl((4-methylthiazol-2-yl)methyl)amino)-1-phenylbutan-2-yl)-5-(N-methylmethylsulfonamido)-N3-(1-phenylethyl)isophthalamide], the Ki in test [1], in test [2] and in test [3] was above 501 nM throughout.

As to `CC(C)NC(=O)c1cccc(CNCC(O)C(Cc2ccccc2)NC(=O)c2cc(C(=O)NC(C)c3ccccc3)cc(N(C)S(C)(=O)=O)c2)c1` (stereo not shown) [N1-(3-hydroxy-4-(3-(isopropylcarbamoyl)benzylamino)-1-phenylbutan-2-yl)-5-(N-methylmethylsulfonamido)-N3-(1-phenylethyl)isophthalamide], the Ki in test [1] and in test [3] was above 501 nM each time. Besides, the IC50 in test [4] is above 5000 nM.

On to `COc1cccc(CNCC(O)C(Cc2ccccc2)NC(=O)c2cccc(C(=O)N(Cc3nc(C)cs3)C3CC3)c2)c1` (stereo not shown) [N1-cyclopropyl-N3-(3-hydroxy-4-(3-methoxybenzylamino)-1-phenylbutan-2-yl)-N1-((4-methylthiazol-2-yl)methyl)isophthalamide], for which the Ki in test [1] is below 300 nM; in test [2] it was below 300 nM; in test [3], above 501 nM.

With “4- or 6-fluoro-N3-(3-hydroxy-4-(3-methoxybenzylamino)-1-phenylbutan-2-yl)-N1-methyl-N1-((4-methylthiazol-2-yl)methyl)isophthalamide”, the Ki in test [1], in test [2] and in test [3] was below 300 nM throughout.

On to `COc1cncc(CNCC(O)C(Cc2ccccc2)NC(=O)c2cc(C(=O)NC(C)c3ccccc3)cc(N(C)S(C)(=O)=O)c2)c1` (stereo not shown) [N1-(3-hydroxy-4-((5-methoxypyridin-3-yl)methylamino)-1-phenylbutan-2-yl)-5-(N-methylmethylsulfonamido)-N3-(1-phenylethyl)isophthalamide], for which the Ki in test [1] is below 300 nM; in test [2] it was below 300 nM; in test [3], 301 to 500 nM.

`COc1cccc(CNCC(O)C(Cc2ccccc2)NC(=O)c2cc(C(=O)NC(C)c3ccccc3)cc(N(C)S(C)(=O)=O)c2)c1` (stereo not shown) [N1-(3-hydroxy-4-(3-methoxybenzylamino)-1-phenylbutan-2-yl)-5-(N-methylmethylsulfonamido)-N3-(1-phenylethyl)isophthalamide]: the Ki in test [2] and in test [3] was below 300 nM throughout. For the same molecule, the IC50 in test [4] was below 1000 nM.
